In US20230158057A1, “COMPOSITIONS AND METHODS FOR THE TREATMENT OF PAIN” (Duke University, priority 2020, published 2023):

Experiments:
[1] = test system: female C57BL/6 mice with intrafemoral E0771 breast carcinoma; assay: E0771 breast cancer-induced bone cancer pain model; type: in vivo, mouse; conditions: for bone destruction scored from X-ray images: E0771-bearing femora; for body weight / mechanical allodynia, cold allodynia and spontaneous pain: E0771 model
Experimental: Bone cancer pain model. The murine cell lines LLC1, LL/2-Luc2 or E0771 were lightly digested using 0.05% trypsin, followed by centrifugation to remove poorly digested cell clusters. Cells were then resuspended in PBS at a concentration of 1×10^8 cells/ml. The inoculation was performed as previously described (Wang, K. et al. “PD-1 blockade inhibits osteoclast formation and murine bone cancer pain.” The Journal of clinical investigation, (2020); Wang, Z. et al. “Anti-PD-1 treatment impairs opioid antinociception in rodents and nonhuman primates.” Sci Transl Med 12 (2020)). Briefly, mice were anesthetized with 4% isoflurane and the left leg was shaved and the skin disinfected with 10% povidone-iodine and 75% ethanol. A superficial incision (0.5-1 cm) was made near the knee joint, exposing the patellar ligament. A new 25-gauge needle was inserted at the site of the intercondylar notch of the left femur into the femoral cavity, which was then replaced with a 10 μL microinjection syringe containing a 2 μL suspension of tumor cells (2×10^5) followed by 2 μL absorbable gelatin sponge solution to seal the injection site. The syringe contents were slowly injected into the femoral cavity over a 2-minute interval. To prevent further leakage of tumor cells outside of the bone cavity, the outer injection site was sealed with silicone adhesive (Kwik-Sil, World Precision Instruments, US). Animals with surgery related movement dysfunction or with outside bone tumor injection were excluded from the study.
Behavior tests. All the behavioral tests were conducted in a blinded manner and performed during between the hours of 9:00-16:00. Animals were habituated in a light and humidity controlled testing environment for at least 2 days prior to baseline testing. For Von Frey testing, mice were confined to individual 5×5 cm boxes placed on an elevated wire grid. A blinded experimenter stimulated their hindpaws using a series of von Frey filaments with logarithmically increasing stiffness (0.02-2.56 g, Stoelting). Each filament was applied perpendicularly to the central plantar surface. The 50% paw withdrawal threshold was determined using Dixon's up-down method. In addition, we also measured paw withdrawal frequency to repeated stimulation (10 times, with ˜1-2 minutes between each stimulation) using a subthreshold 0.16 g von Frey filament, which is a more sensitive method to detect mechanical allodynia. To measure cold allodynia, mice were similarly isolated to individual boxes on an elevated mesh floor, and a drop (˜20-30 μl) of acetone was applied to the plantar hindpaw. […] To measure locomotor function, we performed open field testing in which mice were placed in the center of a 45×45 cm chamber and locomotor activity was recorded by an overhead webcam connected to a laptop computer, and animals' movements were automatically tracked for 30 minutes using ANY-Maze. The total distance traveled and mean speed during the 30-minute period were analyzed.
(§1) In vivo X-ray radiography. Osteolytic bone destruction was continuously evaluated by radiography using the MultiFocus by Faxitron system (Faxitron Bioptics LLC, Tucson, Ariz.). Radiographs of tumor-bearing femora were rated for bone destruction on a 0-5 score scale based on previous study: 0 for normal bone at baseline without tumor inoculation; 1 for one to three radiolucent lesions indicative of bone destruction compared to baseline; 2 for increased number of lesions (three to six lesions) and loss of medullary bone; 3 for loss of medullary bone and erosion of cortical bone; 4 for full-thickness unicortical bone loss; 5 for full-thickness bicortical bone loss and displaced skeletal fracture. All radiographic image quantifications were completed by an experimenter who was blinded to the experimental conditions.
STING agonist treatment protects against breast cancer induced bone pain and bone destruction. […]

RAW 264.7 cells = assay: In vitro osteoclastogenesis, RANKL-treated RAW 264.7 cells, TRAP staining; type: cell-based, mouse; conditions: RANKL 35 ng/ml, 6 days, escalating dose
Experimental: In vitro induction of osteoclastogenesis and TRAP staining. For in vitro drug treatment, the RAW 264.7 cells were incubated with 35 ng/ml RANKL for six days. Isolated bone marrow cells were cultured overnight in α-MEM media containing 10% fetal bovine serum and 1% antibiotic-antimycotic solution. The suspended cells were collected and incubated with 20 ng/ml MCSF for 3 days to obtain bone marrow-derived macrophage (BMDM). The attached cells were further activated by 35 ng/ml RANKL and 20 ng/ml MCSF. Drug treatment was performed in tandem with RANKL. Culture medium and co-cultured reagents were changed every 3 days. After 6 or 7 days of incubation, the cells were fixed by 4% PFA and stained with warm TRAP staining solution (TRAP kit, Sigma-Aldrich, SLBW4002) for 10-30 min at 37° C.

LLC lung tumor nodules = assay: Lung metastases after intrafemoral LLC inoculation; type: in vivo, mouse; conditions: d17, 20 mg/kg i.p., vs vehicle or ZA
From the text: Visual and immunohistochemical analysis of lung metastases. Mice were deeply anesthetized with isoflurane and perfused intracardially with PBS, followed by 4% PFA. After the perfusion, lungs were removed from mice and post-fixed in the same fixative overnight. The samples were then dehydrated with a 30% sucrose solution, embedded in O.C.T. (Tissue Tek), and cryosectioned to produce 8 μm thick sections. For Hematoxylin and Eosin (H & E) staining, lung sections were rehydrated and stained with 0.1% Hematoxylin and 0.5% Eosin in sequence. After dehydration and clearance with HistoClear (Electron

tumor-bearing femora = assay: In vivo X-ray radiography of bone destruction, LLC model; set-up: species or system mouse; conditions: for bone destruction score: LLC model, twice i.p.
From the text: as §1

DRG nociceptors = assay: Whole-mount DRG patch clamp from tumor-bearing mice ex vivo; type: cell-based, mouse; conditions: 30 μM, 2 h, DRGs isolated d11
From the text: Whole-cell patch clamp recordings in whole-mount DRGs ex vivo. Four-week-old male C57BL/6 mice were used to establish the bone cancer pain model by intrafemoral inoculation of LLC, leading to nociceptor hyperexcitability in the ipsilateral L3-L5 DRGs which extend afferent nerve fibers to the tumor-bearing femur. […] 11d after tumor implantation, mice were euthanized followed by careful isolation of L3-L5 DRGs, which were placed in oxygenated artificial cerebrospinal fluid. DRGs were lightly digested for 20 minutes using an enzymatic mixture consisting of 0.32 ml collagenase A (1 mg/mL) and Trypsin (0.25%). Intact DRGs were then incubated in ACSF oxygenated with 95% O2 and 5% CO2, supplemented with vehicle (PBS) or 30 μM DMXAA in PBS for 2 hours at 37° C. Following incubation, DRGs were transferred to a recording chamber, where neurons could be visualized using a 40× water-immersion objective on an Olympus BX51WI microscope. Patch pipettes were pulled from borosilicate capillaries (Chase Scientific Glass Inc.) and filled with a pipette solution containing (in mM): 126 potassium gluconate, 10 NaCl, 1 MgCl2, 10 EGTA, 2 Na-ATP, and 0.1 Mg-GTP, adjusted to pH 7.3 with KOH. The external solution was composed of (in mM): 140 NaCl, 5 KCl, 2 CaCl2, 1 MgCl2, 10 HEPES, 10 glucose, adjusted to pH 7.4 with NaOH. […] Data were recorded and analyzed using the pClamp10 (Axon Instruments) software.

SMILES	bone destruction scored from X-ray images [1]	body weight [1]	mechanical allodynia, cold allodynia and spontaneous pain [1]	osteoclast differentiation (RAW 264.7 cells)	lung tumor nodules (LLC lung tumor nodules)	bone destruction score (tumor-bearing femora)	bone destruction in Batf3^−/− mice (tumor-bearing femora; 20 mg/kg i.p. d3 and d7)	bone destruction score, WT and Rag1^−/− (tumor-bearing femora; 20 mg/kg i.p. d3 and d7)	bone destruction score, WT vs STING^gt/gt (tumor-bearing femora; 20 mg/kg i.p. d3 and d7)	bone destruction score, WT vs Ifnar1^−/− (tumor-bearing femora; d11 and d15)	current-evoked action potential firing (DRG nociceptors)	rheobase of nociceptors (DRG nociceptors)
Nc1ncnc2c1ncn2[C@@H]1O[C@@H]2COP(=O)([S-])O[C@@H]3[C@H](O)[C@@H](COP([O-])(=S)O[C@H]2[C@H]1O)O[C@H]3n1cnc2c(N)ncnc21.[Na+].[Na+] (stereo partly drawn) [ADU-S100, (2′-5′)-[P(R)]-5′-O-[(R)-hydroxymercaptophosphinyl]-P-thioadenylyl-adenosine cyclic dinucleotide]	could also attenuate bone destruction	had no effect on body weight	could markedly reduce mechanical allodynia, cold allodynia and spontaneous pain	dose dependently inhibited osteoclast differentiation	fewer lung tumor nodules	reduced the bone destruction score at d11 and d15						
Cc1ccc2c(=O)c3cccc(CC(=O)O)c3oc2c1C [DMXAA, 2-(5,6-dimethyl-9-oxo-9H-xanthen-4-yl)acetic acid]	could also attenuate bone destruction	had no effect on body weight	could markedly reduce mechanical allodynia, cold allodynia and spontaneous pain	dose dependently inhibited osteoclast differentiation		decreased the bone destruction score on d8, d11 and d15	reduced bone destruction on d8 and d11 but not d15 in Batf3^−/− mice	improvement in the bone destruction score in both WT and Rag1^−/− mice at d11, but not at d15	reduction in the bone destruction score in DMXAA-treated WT mice at d11 and d15 after tumor inoculation, and this effect was abolished in STING^gt/gt mice	significantly reduced the bone destruction score without changing overall body weight in WT mice, but this effect was abolished in Ifnar1^−/− mice	sharply reduced the cancer-induced increase in current-evoked action potential firing	markedly increased the rheobase of nociceptors
